Measured values from patent publication US20250197372A1 (priority 2020, published 2025).

What was measured:
[1] = molecular target: T1, recombinant human GBA (beta-glucocerebrosidase) (Homo sapiens, UniProt P04062); experiment: Beta-glucocerebrosidase (GBA, glucosylceramidase) assay (4-methylumbelliferyl-beta-D-pyranoside substrate, fluorescence); type: biochemical
T1 sequence (P04062 40-536): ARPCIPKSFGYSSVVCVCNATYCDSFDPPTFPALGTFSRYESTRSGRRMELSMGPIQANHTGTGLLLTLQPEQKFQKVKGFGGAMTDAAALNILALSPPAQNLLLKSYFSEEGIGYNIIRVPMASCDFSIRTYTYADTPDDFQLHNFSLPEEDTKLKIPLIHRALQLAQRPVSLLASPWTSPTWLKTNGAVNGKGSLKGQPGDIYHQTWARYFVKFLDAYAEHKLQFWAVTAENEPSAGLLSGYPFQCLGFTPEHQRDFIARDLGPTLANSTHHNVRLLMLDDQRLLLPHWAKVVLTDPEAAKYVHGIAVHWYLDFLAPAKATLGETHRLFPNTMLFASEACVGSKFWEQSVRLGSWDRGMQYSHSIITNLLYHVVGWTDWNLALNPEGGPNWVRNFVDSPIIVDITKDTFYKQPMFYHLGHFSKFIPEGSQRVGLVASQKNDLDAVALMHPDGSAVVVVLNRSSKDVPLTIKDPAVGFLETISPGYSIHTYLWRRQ
Description: Beta-glucocerebrosidase (GBA, also referred to glucosylceramidase): To analyze inhibitory effects of a test compound, commercially available recombinant human GBA was incubated with multiple dilutions of test compound for 60 minutes at 37° C. 4-methylumbelliferyl-beta-D-pyranoside was then introduced to the mixture as substrate. Following incubation for 60 minutes at 37° C., 1,4-methyllumbelliferone was generated, and the reaction was stopped with the stop solution (0.5 M glycine; 0.3 M NaOH, pH 10). 1,4-methyllumbelliferone was detected by fluorescence (excitation at 365 nm, emission at 440 nm). Relative fluorescence compared to untreated enzymatic activity and test compound concentration is then plotted as a function of percent inhibition. The IC50 was determined using a 4-PL curve fit as the measure of relative inhibitory activity of each test compound (see Table 3).

[2] = molecular target: rat sucrase (partially purified alpha-glucosidase from intestinal rat powder) (Rattus norvegicus, UniProt P23739); experiment: Intestinal alpha-glucosidase assay, sucrose substrate (Glucose GO Kit); type: biochemical
rat sucrase (partially purified alpha-glucosidase from intestinal rat powder), sequence (P23739 whole entry): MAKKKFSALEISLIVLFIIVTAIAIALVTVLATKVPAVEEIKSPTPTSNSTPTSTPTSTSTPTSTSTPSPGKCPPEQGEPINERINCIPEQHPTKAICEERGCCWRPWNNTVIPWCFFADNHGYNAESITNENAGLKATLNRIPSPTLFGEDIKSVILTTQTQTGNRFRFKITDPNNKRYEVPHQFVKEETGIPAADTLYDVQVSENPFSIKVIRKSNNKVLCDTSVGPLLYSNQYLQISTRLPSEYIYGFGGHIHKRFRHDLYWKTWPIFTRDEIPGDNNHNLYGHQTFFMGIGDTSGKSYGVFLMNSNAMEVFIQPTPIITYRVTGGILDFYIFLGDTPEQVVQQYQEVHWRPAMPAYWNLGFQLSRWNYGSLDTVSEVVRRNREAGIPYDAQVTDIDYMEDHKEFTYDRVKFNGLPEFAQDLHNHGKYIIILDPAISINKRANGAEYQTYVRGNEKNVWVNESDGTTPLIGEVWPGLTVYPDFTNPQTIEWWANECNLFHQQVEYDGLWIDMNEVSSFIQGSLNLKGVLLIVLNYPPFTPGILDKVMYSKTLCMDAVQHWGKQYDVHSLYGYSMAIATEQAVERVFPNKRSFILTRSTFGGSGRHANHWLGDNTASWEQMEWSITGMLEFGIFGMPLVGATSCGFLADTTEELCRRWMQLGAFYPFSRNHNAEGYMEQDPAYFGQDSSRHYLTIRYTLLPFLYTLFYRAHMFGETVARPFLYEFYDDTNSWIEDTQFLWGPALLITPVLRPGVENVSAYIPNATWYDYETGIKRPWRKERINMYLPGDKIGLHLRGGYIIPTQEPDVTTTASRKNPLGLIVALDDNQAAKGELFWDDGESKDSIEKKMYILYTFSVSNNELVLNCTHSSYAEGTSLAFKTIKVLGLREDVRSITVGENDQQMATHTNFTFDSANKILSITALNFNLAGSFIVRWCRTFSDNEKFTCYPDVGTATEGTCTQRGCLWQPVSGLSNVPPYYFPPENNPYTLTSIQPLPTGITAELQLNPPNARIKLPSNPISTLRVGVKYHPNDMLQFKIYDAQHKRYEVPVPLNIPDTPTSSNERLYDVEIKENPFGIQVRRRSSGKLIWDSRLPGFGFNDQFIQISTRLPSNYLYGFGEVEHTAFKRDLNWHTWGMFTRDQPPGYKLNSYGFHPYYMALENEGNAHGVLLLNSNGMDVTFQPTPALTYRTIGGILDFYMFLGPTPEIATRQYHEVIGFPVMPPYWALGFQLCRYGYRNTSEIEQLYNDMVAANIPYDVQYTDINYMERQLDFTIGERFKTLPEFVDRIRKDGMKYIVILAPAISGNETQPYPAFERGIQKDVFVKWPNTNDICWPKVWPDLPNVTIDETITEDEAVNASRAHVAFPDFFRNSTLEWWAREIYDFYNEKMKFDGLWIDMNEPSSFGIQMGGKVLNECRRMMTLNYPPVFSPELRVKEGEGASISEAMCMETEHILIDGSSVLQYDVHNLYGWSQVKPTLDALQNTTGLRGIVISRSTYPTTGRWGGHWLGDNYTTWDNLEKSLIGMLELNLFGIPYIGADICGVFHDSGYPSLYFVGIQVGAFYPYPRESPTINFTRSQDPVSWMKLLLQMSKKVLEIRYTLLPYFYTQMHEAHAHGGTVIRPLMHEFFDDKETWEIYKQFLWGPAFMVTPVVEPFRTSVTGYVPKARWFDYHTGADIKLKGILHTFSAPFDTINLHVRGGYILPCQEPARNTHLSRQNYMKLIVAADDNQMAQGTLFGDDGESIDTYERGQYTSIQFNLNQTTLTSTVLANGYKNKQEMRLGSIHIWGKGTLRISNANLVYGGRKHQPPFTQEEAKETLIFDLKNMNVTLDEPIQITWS
In short: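 Rat intestinal enzyme prep + test cpd dilutions, 60 min 37 °C; add maltose (maltase) or sucrose (sucrase), 30 min 37 °C; stop 90 °C 5 min. Glucose readout (glucose oxidase kit). IC50 from 4-PL fit of % inhibition vs conc.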

Row | SMILES | IC50 [1] [nM] | IC50 [2] [nM]
1 | OC[C@@H]1[C@@H](O)[C@H](O)[C@@H](O)CN1CCc1ccc(CCNc2cc(Cl)cc(-c3ccco3)c2)cc1 [Compound 1159, (2R,3R,4R,5S)-1-{2-[4-(2-{[3-chloro-5-(furan-2-yl)phenyl]amino}ethyl)phenyl]ethyl}-2-(hydroxymethyl)piperidine-3,4,5-triol] | 1050 | 847
2 | OC[C@@H]1[C@@H](O)[C@H](O)[C@@H](O)CN1CCc1ccc(CCNc2cc(Cl)cc(C3=CCOCC3)c2)cc1 [Compound 1160, (2R,3R,4R,5S)-1-{2-[4-(2-{[3-chloro-5-(3,6-dihydro-2H-pyran-4-yl)phenyl]amino}ethyl)phenyl]ethyl}-2-(hydroxymethyl)piperidine-3,4,5-triol] | 1860 | 931
3 | OC[C@@H]1[C@@H](O)[C@H](O)[C@@H](O)CN1CCc1ccc(CCNc2cc(Cl)cc(C3=COCCO3)c2)cc1 [Compound 1161, (2R,3R,4R,5S)-1-{2-[4-(2-{[3-chloro-5-(5,6-dihydro-1,4-dioxin-2-yl)phenyl]amino}ethyl)phenyl]ethyl}-2-(hydroxymethyl)piperidine-3,4,5-triol] | 2820 | 740
4 | OC[C@@H]1[C@@H](O)[C@H](O)[C@@H](O)CN1CCc1ccc(CCNc2cc(Cl)cc(-c3ncccn3)c2)cc1 [Compound 1162, (2R,3R,4R,5S)-1-{2-[4-(2-{[3-chloro-5-(pyrimidin-2-yl)phenyl]amino}ethyl)phenyl]ethyl}-2-(hydroxymethyl)piperidine-3,4,5-triol] | 2680 | 476
5 | OC[C@@H]1[C@@H](O)[C@H](O)[C@@H](O)CN1CCc1ccc(CCNc2cc(Cl)cc(-c3cccnn3)c2)cc1 [Compound 1163, (2R,3R,4R,5S)-1-{2-[4-(2-{[3-chloro-5-(pyridazin-3-yl)phenyl]amino}ethyl)phenyl]ethyl}-2-(hydroxymethyl)piperidine-3,4,5-triol] | 6820 | 584
6 | [N-]=[N+]=Nc1ccc(NCc2ccc(-c3ccc(CN4C[C@H](O)[C@@H](O)[C@H](O)[C@H]4CO)cc3)cc2)c([N+](=O)[O-])c1 [Compound 1166, (2R,3R,4R,5S)-1-[(4′-{[(4-azido-2-nitrophenyl)amino]methyl}-[1,1′-biphenyl]-4-yl)methyl]-2-(hydroxymethyl)piperidine-3,4,5-triol] | 5630 | 156
7 | [N-]=[N+]=Nc1ccc(NCc2cccc(CN3C[C@H](O)[C@@H](O)[C@H](O)[C@H]3CO)c2)c([N+](=O)[O-])c1 [Compound 1169, (2R,3R,4R,5S)-1-[(3-{[(4-azido-2-nitrophenyl)amino]methyl}phenyl)methyl]-2-(hydroxymethyl)piperidine-3,4,5-triol] | 83500 | < 1
8 | [N-]=[N+]=Nc1ccc(NCc2ccc(CN3C[C@H](O)[C@@H](O)[C@H](O)[C@H]3CO)cc2)c([N+](=O)[O-])c1 [Compound 1170, (2R,3R,4R,5S)-1-[(4-{[(4-azido-2-nitrophenyl)amino]methyl}phenyl)methyl]-2-(hydroxymethyl)piperidine-3,4,5-triol] | 29900 | 2
9 | [N-]=[N+]=Nc1ccc(NCCc2cc(CCN3C[C@H](O)[C@@H](O)[C@H](O)[C@H]3CO)ccc2C2CCCCC2)c([N+](=O)[O-])c1 [Compound 1171, (2R,3R,4R,5S)-1-[2-(3-{2-[(4-azido-2-nitrophenyl)amino]ethyl}-4-cyclohexylphenyl)ethyl]-2-(hydroxymethyl)piperidine-3,4,5-triol] | 204 | 10700
10 | [N-]=[N+]=Nc1ccc(NCCc2ccc(CCN3C[C@H](O)[C@@H](O)[C@H](O)[C@H]3CO)c3c2OCCO3)c([N+](=O)[O-])c1 [Compound 1173, (2R,3R,4R,5S)-1-[2-(8-{2-[(4-azido-2-nitrophenyl)amino]ethyl}-2,3-dihydro-1,4-benzodioxin-5-yl)ethyl]-2-(hydroxymethyl)piperidine-3,4,5-triol] | 5320 | 456
11 | [N-]=[N+]=Nc1ccc(NCc2cc(CCN3C[C@H](O)[C@@H](O)[C@H](O)[C@H]3CO)cs2)c([N+](=O)[O-])c1 [Compound 1174, (2R,3R,4R,5S)-1-[2-(5-{[(4-azido-2-nitrophenyl)amino]methyl}thiophen-3-yl)ethyl]-2-(hydroxymethyl)piperidine-3,4,5-triol] | 805 | 1
12 | [N-]=[N+]=Nc1ccc(NCCn2cc(CCN3C[C@H](O)[C@@H](O)[C@H](O)[C@H]3CO)c3ccccc32)c([N+](=O)[O-])c1 [Compound 1177, (2R,3R,4R,5S)-1-[2-(1-{2-[(4-azido-2-nitrophenyl)amino]ethyl}-1H-indol-3-yl)ethyl]-2-(hydroxymethyl)piperidine-3,4,5-triol] | 3320 | 883
13 | [N-]=[N+]=Nc1ccc(NCCc2cc(CCN3C[C@H](O)[C@@H](O)[C@H](O)[C@H]3CO)cs2)c([N+](=O)[O-])c1 [Compound 1179, (2R,3R,4R,5S)-1-[2-(5-{2-[(4-azido-2-nitrophenyl)amino]ethyl}thiophen-3-yl)ethyl]-2-(hydroxymethyl)piperidine-3,4,5-triol] | 380 | 181
14 | COc1cc(CN2CCCO2)cc(NCCCCCCN2C[C@H](O)[C@@H](O)[C@H](O)[C@H]2CO)c1 [Compound 1182, (2R,3R,4R,5S)-2-(hydroxymethyl)-1-[6-({3-methoxy-5-[(1,2-oxazolidin-2-yl)methyl]phenyl}amino)hexyl]piperidine-3,4,5-triol] | 6130 | 179
15 | OC[C@@H]1[C@@H](O)[C@H](O)[C@@H](O)CN1CCCCCCNc1cc(Cl)cc(CN2CCCO2)c1 [Compound 1183, (2R,3R,4R,5S)-1-[6-({3-chloro-5-[(1,2-oxazolidin-2-yl)methyl]phenyl}amino)hexyl]-2-(hydroxymethyl)piperidine-3,4,5-triol] | 5620 | 94
16 | O=Cc1cc(-c2ncccn2)ccc1NCCCCCCN1C[C@H](O)[C@@H](O)[C@H](O)[C@H]1CO [Compound 1184, 5-(pyrimidin-2-yl)-2-({6-[(2R,3R,4R,5S)-3,4,5-trihydroxy-2-(hydroxymethyl)piperidin-1-yl]hexyl}amino)benzaldehyde] | 950 | 65
17 | [N-]=[N+]=Nc1ccc(NCCc2ccc(CCN3C[C@H](O)[C@@H](O)[C@H](O)[C@H]3CO)s2)c([N+](=O)[O-])c1 [Compound 1186, (2R,3R,4R,5S)-1-[2-(5-{2-[(4-azido-2-nitrophenyl)amino]ethyl}hiophen-2-yl)ethyl]-2-(hydroxymethyl)piperidine-3,4,5-triol] | 1280 | 175
18 | [N-]=[N+]=Nc1ccc(NCCc2cncc(CCN3C[C@H](O)[C@@H](O)[C@H](O)[C@H]3CO)n2)c([N+](=O)[O-])c1 [Compound 1187, (2R,3R,4R,5S)-1-[2-(6-{2-[(4-azido-2-nitrophenyl)amino]ethyl}pyrazin-2-yl)ethyl]-2-(hydroxymethyl)piperidine-3,4,5-triol] | 16400 | 2050
19 | [N-]=[N+]=Nc1ccc(NCCc2nccc(CCN3C[C@H](O)[C@@H](O)[C@H](O)[C@H]3CO)n2)c([N+](=O)[O-])c1 [Compound 1188, (2R,3R,4R,5S)-1-[2-(2-{2-[(4-azido-2-nitrophenyl)amino]ethyl}pyrimidin-4-yl)ethyl]-2-(hydroxymethyl)piperidine-3,4,5-triol] | 9050 | 783
20 | [N-]=[N+]=Nc1ccc(NCCc2cnn(CCN3C[C@H](O)[C@@H](O)[C@H](O)[C@H]3CO)c2)c([N+](=O)[O-])c1 [Compound 1191, (2R,3R,4R,5S)-1-[2-(4-{2-[(4-azido-2-nitrophenyl)amino]ethyl}-1H-pyrazol-1-yl)ethyl]-2-(hydroxymethyl)piperidine-3,4,5-triol] | 28600 | 2010
21 | OC[C@@H]1[C@@H](O)[C@H](O)[C@@H](O)CN1CCCCCCNc1cc(Cl)cc(-c2cnccn2)c1 [Compound 1196, (2R,3R,4R,5S)-1-(6-{[3-chloro-5-(pyrazin-2-yl)phenyl]amino}hexyl)-2-(hydroxymethyl)piperidine-3,4,5-triol] | 773 | 175
22 | COc1cc(NCCCCCCN2C[C@H](O)[C@@H](O)[C@H](O)[C@H]2CO)cc(-c2cnccn2)c1 [Compound 1197, (2R,3R,4R,5S)-2-(hydroxymethyl)-1-(6-{[3-methoxy-5-(pyrazin-2-yl)phenyl]amino}hexyl)piperidine-3,4,5-triol] | 2070 | 177
23 | OC[C@@H]1[C@@H](O)[C@H](O)[C@@H](O)CN1CCCCCCNc1ccc(-c2cnccn2)cc1Cl [Compound 1198, (2R,3R,4R,5S)-1-(6-{[2-chloro-4-(pyrazin-2-yl)phenyl]amino}hexyl)-2-(hydroxymethyl)piperidine-3,4,5-triol] | 2700 | 1
